From article PMC7111280 (European Journal of Medicinal Chemistry, 2018)

Tests used:
[1] = test system: Hel cells; conditions: Table 5, HSV/vaccinia assays, Hel cell morphology
[2] = test system: HSV-1 (TK−) KOS ACVr; experiment: microbe, parasite or virus in culture; assay type: cell-based, herpes simplex virus type 1; conditions: Human alphaherpesvirus 1, HEL, read-out: HSV-1 (TK−) KOS ACVr EC50
[3] = test system: vaccinia virus; experiment: microbe, parasite or virus in culture; assay type: cell-based; conditions: Orthopoxvirus vaccinia, HEL, read-out: vaccinia virus EC50
[4] = test system: CEM; conditions: read-out: CEM IC50; proliferation, Coulter Counter cell count; cited from earlier work
[5] = test system: L1210; conditions: read-out: L1210 IC50; proliferation, Coulter Counter cell count; cited from earlier work
[6] = test system: HeLa; conditions: read-out: HeLa IC50; proliferation, Coulter Counter cell count; cited from earlier work
[7] = test system: HMVEC; experiment: Endothelial cell proliferation, Coulter counter; assay type: cell-based; conditions: Homo sapiens, 96 h, read-out: HMVEC IC50
[8] = test system: MDA-MB-231-LM2 cells; experiment: Metastatic breast cancer xenograft mouse model; assay type: in vivo, SCID mice
[9] = test system: CMV (AD-169); experiment: Antiviral cytopathicity assay in Hel cells; assay type: cell-based, human cytomegalovirus

Structure (SMILES): Nc1nc2c(ncn2COCCO)c(=O)[nH]1 [Acyclovir, reference compound]
- MCC (minimal cytotoxic concentration) [1]: >250 µM

Structure (SMILES): Nc1ccn(C[C@@H](CO)OCP(=O)(O)O)c(=O)n1.O.O [Cidofovir]
- EC50 [2]: 2000 nM
- MCC (minimal cytotoxic concentration) [1]: >250 µM
- EC50 [3]: 22000 nM

Structure (SMILES): C#C[C@@]1(O)[C@@H](CO)O[C@@H](n2cnc3c(N)ncnc32)[C@@H]1O [Compound 5, 3′-C-ethynyladenosine]
- IC50 [4]: 610 ± 80 nM
- EC50 [3]: 350 ± 50 nM
- IC50 [5]: 730 ± 140 nM
- IC50 [6]: 290 ± 110 nM

Structure (SMILES): C#C[C@@]1(O)[C@@H](CO)O[C@@H](n2cc(F)c3c(N)ncnc32)[C@@H]1O [Compound 31, 4-amino-5-fluoro-N7-(3′-C-ethynyl-β-D-ribofuranosyl)-pyrrolo[2,3-d]pyrimidine]
- IC50 [7]: < 1.28 nM

Structure (SMILES): C#C[C@@]1(O)[C@@H](CO)O[C@@H](n2cc(Cl)c3c(N)ncnc32)[C@@H]1O [Compound 32, 4-amino-5-chloro-N7-(3′-C-ethynyl-β-D-ribofuranosyl)-pyrrolo[2,3-d]pyrimidine]
- tumor growth (BLI radiance, caliper) ([8]; 0.3 mg/kg i.t., starting from day 18, after four i.t. injections): significantly retarded
- total metastasis burden in the lungs (BLI) ([8]; day 34 versus vehicle control group): significantly lower
- IC50 [7]: < 1.28 nM

Structure (SMILES): C#C[C@@]1(O)[C@@H](CO)O[C@@H](n2cc(I)c3c(N)ncnc32)[C@@H]1O [Compound 34, 4-amino-5-iodo-N7-(3′-C-ethynyl-β-D-ribofuranosyl)-pyrrolo[2,3-d]pyrimidine]
- IC50 [7]: < 1.28 nM

Structure (SMILES): C#C[C@@]1(O)[C@@H](CO)O[C@@H](n2cc(Cl)c3c(Cl)ccnc32)[C@@H]1O [Compound 66, 3,4-dichloro-N1-(3′-C-ethynyl-β-D-ribofuranosyl)-pyrrolo[2,3-b]pyridine]
- MCC (minimal cytotoxic concentration) [1]: ≥100 µM
- selectivity index ([9]; human cytomegalovirus (hCMV)): 10 fold

Structure (SMILES): C#C[C@@]1(O)[C@@H](CO)O[C@@H](n2cc(Br)c3c(Cl)ccnc32)[C@@H]1O [Compound 67, 3-bromo-4-chloro-N1-(3′-C-ethynyl-β-D-ribofuranosyl)-pyrrolo[2,3-b]pyridine]
- MCC (minimal cytotoxic concentration) [1]: >100 µM

Structure (SMILES): C#C[C@@]1(O)[C@@H](CO)O[C@@H](n2cc(I)c3c(Cl)ccnc32)[C@@H]1O [Compound 68, 3-iodo-4-chloro-N1-(3′-C-ethynyl-β-D-ribofuranosyl)-pyrrolo[2,3-b]pyridine]
- MCC (minimal cytotoxic concentration) [1]: >100 µM

Structure (SMILES): C#C[C@@]1(O)[C@@H](CO)O[C@@H](n2ccc3c(Cl)ccnc32)[C@@H]1O [Compound 70, 4-chloro-N1-(3′-C-ethynyl-β-D-ribofuranosyl)-pyrrolo[2,3-b]pyridine]
- MCC (minimal cytotoxic concentration) [1]: >100 µM
- activity against hCMV [9]: inactive

Structure (SMILES): Nc1nc(O)c2ncn(COC(CO)CO)c2n1 [Ganciclovir, reference compound]
- MCC (minimal cytotoxic concentration) [1]: >100 µM
